Results taken from patent publication US4843070A, “Substituted thiazetoquinoline-3-carboxylic acids and pharmaceutically acceptable salts thereof” (priority 1986, dated 1989).
Converted amounts (≈) assume the structure as drawn. Like-named read-outs stand apart in the source and are kept apart here.

Tests used:
[1] = system: infections caused by Gram positive bacteria and Pseudomonas aeruginosa (chronic); details: background statement; cited from earlier work
[2] = system: S. aureus 209-P JC; assay: MIC by agar plate dilution method, S. aureus 209-P JC; format: cell-based; details: Staphylococcus aureus, S. aureus 209-P JC, inoculum 10^6, 37° C., 18 hours, read-out: minimum inhibitory concentration (MIC)
Description: (§1) Test method: The MIC was measured by an agar plate dilution method in accordance with a standard method of Japan Chemotherapeutic Society (cf. Nippon Kagaku Ryoho Gakkaishi, 29(1), 76-79, 1981). Thus, the organisms incubated at 37° C. for 18 hours using sensitivity test broth (Nissei) was diluted to 10^6 CFU/ml using the same broth. […] As a control, enoxacin and ofloxacin were used in Tests 1 and 2, respectively.
(§2) The numbers of the inoculated bacteria were 10^6 in all cases and the unit of the MIC was micrograms/ml.

[3] = system: M. luteus ATCC 9341; assay: MIC by agar plate dilution method, M. luteus ATCC 9341; format: cell-based; details: Micrococcus luteus, ATCC9341, inoculum 10^6, 37° C., 18 hours, read-out: minimum inhibitory concentration (MIC)
Description: as §1, §2

[4] = system: B. subtilis ATCC 6633; assay: MIC by agar plate dilution method, B. subtilis ATCC 6633; format: cell-based; details: Bacillus subtilis, ATCC6633, B. subtilis ATCC 6633, inoculum 10^6, 37° C., 18 hours, read-out: minimum inhibitory concentration (MIC)
Description: as §1, §2

[5] = system: E. coli NIHJ JC-2; assay: MIC by agar plate dilution method, E. coli NIHJ JC-2; format: cell-based; details: Escherichia coli, read-out: minimum inhibitory concentration (MIC)
Description: as §1, §2

[6] = system: K. pneumoniae K-1966; assay: MIC by agar plate dilution method, K. pneumoniae K-1966; format: cell-based; details: Klebsiella pneumoniae, read-out: minimum inhibitory concentration (MIC)
Description: as §1, §2

[7] = system: S. marcescens IFO 3736; assay: MIC by agar plate dilution method, S. marcescens IFO 3736; format: cell-based; details: Serratia marcescens, IFO3736, inoculum 10^6, 37° C., 18 hours, read-out: minimum inhibitory concentration (MIC)
Description: as §1, §2

[8] = system: S. flexneri; assay: MIC by agar plate dilution method, S. flexneri; format: cell-based; details: Shigella flexneri, 18 hours, read-out: minimum inhibitory concentration (MIC)
Description: as §1, §2

[9] = system: P. aeruginosa E-2; assay: MIC by agar plate dilution method, P. aeruginosa E-2; format: cell-based; details: Pseudomonas aeruginosa, E2, P. aeruginosa E-2, inoculum 10^6, 37° C., 18 hours, read-out: minimum inhibitory concentration (MIC)
Description: as §1, §2

[10] = system: S. epidermidis; assay: MIC by agar plate dilution method, S. epidermidis; format: cell-based; details: Staphylococcus epidermidis, Test 2, inoculum 10^6, 37° C., 18 hours, read-out: minimum inhibitory concentration (MIC)
Description: as §1, §2

[11] = system: Proteus mirabilis 181; assay: MIC by agar plate dilution method, Proteus mirabilis 181; format: cell-based; details: read-out: minimum inhibitory concentration (MIC)
Description: as §1, §2

[12] = system: S. aureus Smith; assay: MIC by agar plate dilution method, S. aureus Smith; format: cell-based; details: Staphylococcus aureus; Test 1; S. aureus Smith; inoculum 10^6; 37° C., 18 hours; read-out: minimum inhibitory concentration (MIC)
Description: as §1, §2

[13] = system: E. coli KC-14; assay: MIC by agar plate dilution method, E. coli KC-14; format: cell-based; details: Escherichia coli, KC14; Test 1; E. coli KC-14; inoculum 10^6; 37° C., 18 hours; read-out: minimum inhibitory concentration (MIC)
Description: as §1, §2

[14] = system: E. cloacae No. 1; assay: MIC by agar plate dilution method, E. cloacae No. 1; format: cell-based; details: Enterobacter cloacae; Test 1; E. cloacae No. 1; inoculum 10^6; 37° C., 18 hours; read-out: minimum inhibitory concentration (MIC)
Description: as §1, §2

[15] = system: P. vulgaris HX-19; assay: MIC by agar plate dilution method, P. vulgaris HX-19; format: cell-based; details: Proteus vulgaris, HX19, Test 1, inoculum 10^6, 37° C., 18 hours, read-out: minimum inhibitory concentration (MIC)
Description: as §1, §2

[16] = system: A. calcoaceticus 54; assay: MIC by agar plate dilution method, A. calcoaceticus 54; format: cell-based; details: Acinetobacter calcoaceticus; Test 1; A. calcoaceticus 54; inoculum 10^6; 37° C., 18 hours; read-out: minimum inhibitory concentration (MIC)
Description: as §1, §2

[17] = NIHJJC2, Test 2, E. coli NIHJ JC-2, inoculum 10^6, 37° C., 18 hours
[18] = K1966, Test 2, K. pneumoniae K-1966, inoculum 10^6, 37° C., 18 hours
[19] = Test 2, Proteus mirabilis 181, inoculum 10^6, 37° C., 18 hours

## CCn1cc(C(=O)O)c(=O)c2cnc(N3CCNCC3)nc21 [pipemidic acid]
[1]
  activity against infections caused by Gram positive bacteria and Pseudomonas aeruginosa (chronic): not active

## O=C(O)c1c2n(c3cc(N4CCNCC4)c(F)cc3c1=O)C(c1ccccc1)S2 (stereo not drawn) [Table 1 (11), 6-Fluoro-4-oxo-1-phenyl-7-(1-piperazinyl)-4H-(1,3)thiazeto(3,2-a)quinoline-3-carboxylic acid]
[2]; Test 2
  MIC: 0.2 µg/mL (≈ 0.486 µM)
[3]; Test 2, M. luteus ATTC 9341
  MIC: 3.13 µg/mL (≈ 7.61 µM)
[4]; Test 2
  MIC: 0.05 µg/mL (≈ 0.122 µM)
[5]; [17]
  MIC: 0.025 µg/mL (≈ 0.0608 µM)
[6]; [18]
  MIC: 0.025 µg/mL (≈ 0.0608 µM)
[7]; Test 2, S. Marcescens IFO 3736
  MIC: 0.05 µg/mL (≈ 0.122 µM)
[8]; Test 2, inoculum 10^6, 37° C.
  MIC: 0.025 µg/mL (≈ 0.0608 µM)
[9]; Test 2
  MIC: 0.2 µg/mL (≈ 0.486 µM)
[10]
  MIC: 1.56 µg/mL (≈ 3.79 µM)
[11]; [19]
  MIC: 0.05 µg/mL (≈ 0.122 µM)

## COc1c(N2CCN(C)CC2)c(F)cc2c(=O)c(C(=O)O)c3n(c12)C(C)S3 (stereo not drawn) [Table 1 (14), 6-Fluoro-8-methoxy-1-methyl-7-(4-methyl-1-piperazinyl)-4-oxo-4H-(1,3)thiazeto(3,2-a)quinoline-3-carboxylic acid]
[2]; Test 2
  MIC: 0.1 µg/mL (≈ 0.254 µM)
[3]; Test 2, M. luteus ATTC 9341
  MIC: 0.2 µg/mL (≈ 0.508 µM)
[4]; Test 2
  MIC: 0.025 µg/mL (≈ 0.0635 µM)
[5]; [17]
  MIC: 0.05 µg/mL (≈ 0.127 µM)
[6]; [18]
  MIC: 0.025 µg/mL (≈ 0.0635 µM)
[7]; Test 2, S. Marcescens IFO 3736
  MIC: 0.2 µg/mL (≈ 0.508 µM)
[8]; Test 2, inoculum 10^6, 37° C.
  MIC: 0.0125 µg/mL (≈ 0.0318 µM)
[9]; Test 2
  MIC: 0.39 µg/mL (≈ 0.991 µM)
[10]
  MIC: 0.39 µg/mL (≈ 0.991 µM)
[11]; Proteus mirabilis, 181, 18 h
  MIC: 0.0125 µg/mL (≈ 0.0318 µM)

## CC1Sc2c(C(=O)O)c(=O)c3cc(F)c(N4CCN(C)CC4)c(N)c3n21 (stereo not drawn) [Table 1 (9), 8-Amino-6-fluoro-1-methyl-7-(4-methyl-1-piperazinyl)-4-oxo-4H-(1,3)thiazeto(3,2-a)quinoline-3-carboxylic acid]
[2]; Test 1
  MIC: 0.39 µg/mL (≈ 1.03 µM)
[12]
  MIC: 0.2 µg/mL (≈ 0.529 µM)
[3]; Test 1, M. luteus ATCC 9341
  MIC: 50 µg/mL (≈ 132 µM)
[4]; Test 1
  MIC: 0.2 µg/mL (≈ 0.529 µM)
[5]; NIHJJC2, Test 1, E. coli NIHJ JC-2, inoculum 10^6, 37° C., 18 hours
  MIC: 0.1 µg/mL (≈ 0.264 µM)
[13]
  MIC: 0.05 µg/mL (≈ 0.132 µM)
[6]; K1966, Test 1, K. pneumoniae K-1966, inoculum 10^6, 37° C., 18 hours
  MIC: 0.1 µg/mL (≈ 0.264 µM)
[14]
  MIC: 0.2 µg/mL (≈ 0.529 µM)
[7]; Test 1, S. marcescens IFO 3736
  MIC: 0.39 µg/mL (≈ 1.03 µM)
[15]
  MIC: 0.025 µg/mL (≈ 0.0661 µM)
[8]; Test 1, inoculum 10^6, 37° C.
  MIC: 0.05 µg/mL (≈ 0.132 µM)
[9]; Test 1
  MIC: 1.56 µg/mL (≈ 4.12 µM)
[16]
  MIC: 0.78 µg/mL (≈ 2.06 µM)

## CC1Sc2c(C(=O)O)c(=O)c3cc(F)c(N4CCNCC4)cc3n21 (stereo not drawn) [Table 1 (13), 6-Fluoro-1-methyl-4-oxo-7-(1-piperazinyl)-4H-(1,3)thiazeto(3,2-a)quinoline-3-carboxylic acid]
[2]; Test 2
  MIC: 0.1 µg/mL (≈ 0.286 µM)
[3]; Test 2, M. luteus ATTC 9341
  MIC: 1.56 µg/mL (≈ 4.46 µM)
[4]; Test 2
  MIC: 0.1 µg/mL (≈ 0.286 µM)
[5]; NIHJJC2, 18 h
  MIC: 0.0125 µg/mL (≈ 0.0358 µM)
[6]; K1966, 18 h
  MIC: 0.0125 µg/mL (≈ 0.0358 µM)
[7]; Test 2, S. Marcescens IFO 3736
  MIC: 0.05 µg/mL (≈ 0.143 µM)
[8]; Test 2, inoculum 10^6, 37° C.
  MIC: 0.0125 µg/mL (≈ 0.0358 µM)
[9]; Test 2
  MIC: 0.2 µg/mL (≈ 0.572 µM)
[10]
  MIC: 3.13 µg/mL (≈ 8.96 µM)
[11]; [19]
  MIC: 0.025 µg/mL (≈ 0.0716 µM)

## O=C(O)c1c2n(c3cc(N4CCNCC4)c(F)cc3c1=O)C(c1ccc(F)cc1)S2 (stereo not drawn) [Table 1 (12), 6-Fluoro-1-(4-fluorophenyl)-4-oxo-7-(1-piperazinyl)-4H-(1,3)thiazeto(3,2-a)quinoline-3-carboxylic acid]
[2]; Test 2
  MIC: 0.2 µg/mL (≈ 0.466 µM)
[3]; Test 2, M. luteus ATTC 9341
  MIC: 1.56 µg/mL (≈ 3.63 µM)
[4]; Test 2
  MIC: 0.05 µg/mL (≈ 0.116 µM)
[5]; [17]
  MIC: 0.025 µg/mL (≈ 0.0582 µM)
[6]; [18]
  MIC: 0.0125 µg/mL (≈ 0.0291 µM)
[7]; Test 2, S. Marcescens IFO 3736
  MIC: 0.39 µg/mL (≈ 0.908 µM)
[8]; Test 2, inoculum 10^6, 37° C.
  MIC: 0.025 µg/mL (≈ 0.0582 µM)
[9]; Test 2
  MIC: 0.39 µg/mL (≈ 0.908 µM)
[10]
  MIC: 0.39 µg/mL (≈ 0.908 µM)
[11]; [19]
  MIC: 0.2 µg/mL (≈ 0.466 µM)
